Laboratory results published in patent US7541020B2, “Aminoalkyl glucosaminide phosphate compounds and their use as adjuvants and immunoeffectors” (priority 1997, dated 2009).
Values joined by “and” are separate entries in the source; they are usually repeats but may differ in a detail not shown here. Equal values may be shown once. Read-outs that look alike come from different tables or passages of the source.

Assays:
influenza A/HK/68 [1] = conditions: mouse, in vivo
influenza A/HK/68 [2] = conditions: mouse, in vivo; remark: listed apart in the source
[3] = system: Hepatitis B surface antigen; assay: Randomized controlled clinical study of AgB/RC-210-04 versus AgB: seroprotection, seroconversion, anti-HBsAg titers; format: in vivo, human; conditions: healthy adults; RC-210-04 added to AgB
[4] = system: hepatitis B surface antigen (HBsAg); assay: Serum anti-HBsAg antibody titers after intranasal HBsAg + AGP-AF (ELISA); format: in vivo, BALB/c mice; conditions: for Anti HBsAg Titer^−1 IgG1 / Anti HBsAg Titer^−1 IgG2a: K = 10^3
[5] = system: hepatitis B surface antigen (HBsAg); assay: Vaginal wash anti-HBsAg antibody after intranasal HBsAg + AGP-AF; format: in vivo, BALB/c mice; conditions: 10 days after the booster immunization; intranasal HBsAg + 10 μg AGP-AF
Text: Vaginal samples were collected 10 days after the booster immunization and assayed for anti-HBsAg antibody.

tetanus toxoid [6] = conditions: mouse, in vivo
[7] = system: hepatitis B surface antigen (HBsAg); assay: Anti-HBsAg antibody titer with AGP-SE (ELISA plates coated with HBsAg or p72 peptide); conditions: sera day 28 post 2°, 25 μg AGP-SE; for Anti-HBsAg Titer^−1 HBsAg IgG1 / Anti-HBsAg Titer^−1 HBsAg IgG2a: ELISA plates coated with HBsAg; for Anti-HBsAg Titer^−1 p72-Peptide IgG1 / Anti-HBsAg Titer^−1 p72-Peptide IgG2a: ELISA plates coated with p72 peptide
[8] = system: hepatitis B surface antigen (HBsAg); assay: Cytotoxic T-lymphocyte response to HBsAg with AGP in stable emulsion (AGP-SE); conditions: s.c. 2.0 μg HBsAg + 25 μg AGP/SE
[9] = Fever response in rabbits (pyrogenicity); format: in vivo; conditions: 10 ug/kg; cumulative rise ≥1.5 degree in three rabbits is considered pyrogenic
Description: The AGP compounds were also evaluated for their tendency to induce a fever response in rabbits. Each compound was formulated in 10% (v/v) ethanol/water solution at 100 mg/ml, then diluted with D5W to the desired concentration. The material was injected at 3 ml/kg body weight into 3 rabbits. The rise in core temperature of the rabbits was recorded.

tetanus toxoid [10] = conditions: mouse, in vivo, sc
[11] = system: hepatitis B surface antigen (HBsAg); conditions: for % Cytotoxicity (d16, post 2°): HBsAg + 10 μg AGP-AF intranasally; for % Cytotoxicity (d8, post 3°): intranasal HBsAg + 10 μg AGP-AF
ovalbumin = assay: Stimulation of antiovalbumin antibody production; format: in vivo, BDF1 female mice; conditions: 50 μg AGP + 50 μg ovalbumin; second immunization day 21; bled 14 days after second injection
Description: BDF1 female mice (8 per group) were immunized with 0.2 ml of emulsions containing 50 μg of the AGPs +50 μg of ovalbumin. A second immunization was administered 21 days post primary. Each mouse was bled 14 days after the second injection.

influenza A/HK/68 [12] = format: in vivo, BALB/c mice; conditions: mouse, in vivo
influenza A/HK/68 [13] = system: influenza A/HK/68; set-up: species or system ICR mice; conditions: mouse, in vivo
E.G7 (OVA) cells = conditions: s.c. 25 μg OVA in AGP preparation, spleen cells 21 days later
[14] = day 22 post 2°, HBsAg + 10 μg AGP-AF intranasally
[15] = serum, day 21 post 3°, intranasal HBsAg + 10 μg AGP-AF

2-[(R)-3-Hexanoyloxytetradecanoylamino]ethyl2-Deoxy-4-O-phosphono-3-O-[(R)-3-hexanoyloxytetradecanoyl]-2-[(R)-3-hexanoyloxytetradecanoylamino]-α-D-glucopyranoside Triethylammonium Salt [B31]
Anti-influenza serum titers IgG (influenza A/HK/68 [1]): 3200
Anti-influenza serum titers IgG1 (influenza A/HK/68 [1]): 1600
Anti-influenza serum titers IgG2a (influenza A/HK/68 [1]): 400
Anti-influenza serum titers IgG2b (influenza A/HK/68 [1]): 1600
Protection (influenza A/HK/68 [1]): 70

2-[(R)-3-Tetradecanoyloxytetradecanoylamino]ethyl 2-Deoxy-4-O-phosphono-3-O-[(R)-3-tetradecanoyoxytetradecanoyl]-2-[(R)-3-tetradecanoyoxytetradecanoylamino]-β-D-glucopyranoside Triethylammonium Salt [B19]
Percent Survival (influenza A/HK/68 [2]): 50%
Titer−1 IgG1 (influenza A/HK/68 [2]): 100
Titer−1 IgG2a (influenza A/HK/68 [2]): 800
Titer−1 IgG2b (influenza A/HK/68 [2]): 6400
Titer−1 Total IgG (influenza A/HK/68 [2]): 12,800
antibody responses to Hepatitis B surface antigen (in words) [3]: faster and greater antibody responses
Anti HBsAg Titer^−1 IgA [4, 14]: 1,600
Anti HBsAg Titer^−1 IgG1 [4, 14]: 500K
Anti HBsAg Titer^−1 IgG2a [4, 14]: 64K
Anti HBsAg Titer^−1 IgG1 [4, 15]: 2000K
Anti HBsAg Titer^−1 IgG2a [4, 15]: 500K
Anti HBsAg Titer^−1 IgA [4, 15]: 12,800
Vaginal Wash Anti-HBsAg Titer^−1 IgA [5]: 400
Vaginal Wash Anti-HBsAg Titer^−1 IgG [5]: <50
Anti-Tetanus Toxoid Titer^−1 Fecal Extract IgA (tetanus toxoid [6]): 3200 and 6400
Anti-Tetanus Toxoid Titer^−1 Fecal Extract IgG (tetanus toxoid [6]): 25
Anti-Tetanus Toxoid Titer^−1 Serum Pools IgG1 (tetanus toxoid [6]): 2M and 4M
Anti-Tetanus Toxoid Titer^−1 Vaginal Wash IgA (tetanus toxoid [6]): 1600 and 3200
Anti-Tetanus Toxoid Titer^−1 Vaginal Wash IgG (tetanus toxoid [6]): 200 and 400
Anti-HBsAg Titer^−1 HBsAg IgG1 [7]: 1024K
Anti-HBsAg Titer^−1 HBsAg IgG2a [7]: 1024K
Anti-HBsAg Titer^−1 p72-Peptide IgG1 [7]: 64K
Anti-HBsAg Titer^−1 p72-Peptide IgG2a [7]: 128K

N-[(R)-3-Decanoyloxytetradecanoyl]-O-[2-deoxy-4-O-phosphono-2-[(R)-3-decanoyloxytetradecanoylamino]-3-O-[(R)-3-decanoyloxytetradecanoyl]-β-D-glucopyranosyl]-L-serinamide Triethylammonium Salt [B25]
% Cytotoxicity ([8]; d16, post 2°, E:T 6.25:1): 13%
% Cytotoxicity ([8]; d16, post 2°, E:T 12.5:1): 20%
% Cytotoxicity ([8]; d16, post 2°, E:T 25:1): 28%
% Cytotoxicity ([8]; d16, post 2°, E:T 50:1): 49%
% Cytotoxicity ([8]; d17, post 1°, E:T 6.25:1): 5%
% Cytotoxicity ([8]; d17, post 1°, E:T 12.5:1): 9%
% Cytotoxicity ([8]; d17, post 1°, E:T 25:1): 12%
% Cytotoxicity ([8]; d17, post 1°, E:T 50:1): 27%
PYROGENICITY Total Rise ° C., 3 rabbits [9]: 4.2 °C
Anti HBsAg Titer^−1 IgA [4, 14]: 3,200
Anti HBsAg Titer^−1 IgG1 [4, 14]: 256K#
Anti HBsAg Titer^−1 IgG2a [4, 14]: 500K
Anti HBsAg Titer^−1 IgG1 [4, 15]: 1000K#
Anti HBsAg Titer^−1 IgG2a [4, 15]: 1000K
Anti HBsAg Titer^−1 IgA [4, 15]: 25,600
Anti-tetanus toxoid IgG1 T/C (tetanus toxoid [10]): 2.68
Anti-tetanus toxoid IgG1 Titer (tetanus toxoid [10]): 576,000
Anti-tetanus toxoid IgG2a T/C (tetanus toxoid [10]): 1.67
Anti-tetanus toxoid IgG2a Titer (tetanus toxoid [10]): 8,500
Anti-tetanus toxoid IgG2b T/C (tetanus toxoid [10]): 3.28
Anti-tetanus toxoid IgG2b Titer (tetanus toxoid [10]): 94,400
Anti-tetanus toxoid IgM T/C (tetanus toxoid [10]): 2.0
Anti-tetanus toxoid IgM Titer (tetanus toxoid [10]): 3,200
Anti-tetanus toxoid Total IgG T/C (tetanus toxoid [10]): 8.93
Anti-tetanus toxoid Total IgG Titer (tetanus toxoid [10]): 57,600
Vaginal Wash Anti-HBsAg Titer^−1 IgA [5]: 800
Vaginal Wash Anti-HBsAg Titer^−1 IgG [5]: 100
Anti-Tetanus Toxoid Titer^−1 Fecal Extract IgA (tetanus toxoid [6]): 3200 and 6400
Anti-Tetanus Toxoid Titer^−1 Vaginal Wash IgA (tetanus toxoid [6]): 6400
% Cytotoxicity (d16, post 2°) ([11]; E/T 6.25:1): 9%
% Cytotoxicity (d8, post 3°) ([11]; E/T 6.25:1): 8%
% Cytotoxicity (d16, post 2°) ([11]; E/T 12.5:1): 13%
% Cytotoxicity (d8, post 3°) ([11]; E/T 12.5:1): 13%
% Cytotoxicity (d16, post 2°) ([11]; E/T 25:1): 20%
% Cytotoxicity (d8, post 3°) ([11]; E/T 25:1): 19%
% Cytotoxicity (d16, post 2°) ([11]; E/T 50:1): 36%
% Cytotoxicity (d8, post 3°) ([11]; E/T 50:1): 30%
Anti-HBsAg Titer^−1 HBsAg IgG1 [7]: 2048K*
Anti-HBsAg Titer^−1 HBsAg IgG2a [7]: 2048K
Anti-HBsAg Titer^−1 p72-Peptide IgG1 [7]: 128K
Anti-HBsAg Titer^−1 p72-Peptide IgG2a [7]: 64K
Anti-ovalbumin IgG1 T/C (ovalbumin): 5.2
Anti-ovalbumin IgG1 Titer (ovalbumin): 8500
Anti-ovalbumin IgG2a T/C (ovalbumin): 0.5
Anti-ovalbumin IgG2a Titer (ovalbumin): 163
Anti-ovalbumin IgG2b T/C (ovalbumin): 5.0
Anti-ovalbumin IgG2b Titer (ovalbumin): 1188
Anti-ovalbumin IgM T/C (ovalbumin): 0.8
Anti-ovalbumin IgM Titer (ovalbumin): 150
Anti-ovalbumin Total Ig T/C (ovalbumin): 1.9
Anti-ovalbumin Total Ig Titer (ovalbumin): 438
Anti-influenza Titer^−1 IgG1 (influenza A/HK/68 [12]): 1600
Anti-influenza Titer^−1 IgG2a (influenza A/HK/68 [12]): 6400
Anti-influenza Titer^−1 IgG2b (influenza A/HK/68 [12]): 1600
Anti-influenza Titer^−1 Total IgG (influenza A/HK/68 [12]): 3200
Percent Survival (influenza A/HK/68 [12]): 100%
Percent Protection (influenza A/HK/68 [13]): 100%
Serum Titers IgG1 (influenza A/HK/68 [13]): 102,400
Serum Titers IgG2a (influenza A/HK/68 [13]): 819,200
Serum Titers IgG2b (influenza A/HK/68 [13]): ≧819,200
Serum Titers Total IgG (influenza A/HK/68 [13]): ≧819,200
Vaginal Wash Samples IgA Secondary (influenza A/HK/68 [13]): 1280
Vaginal Wash Samples IgA Tertiary (influenza A/HK/68 [13]): 1280
Vaginal Wash Samples IgG Secondary (influenza A/HK/68 [13]): 640
Vaginal Wash Samples IgG Tertiary (influenza A/HK/68 [13]): 2560
% Cytotoxicity (E.G7 (OVA) cells; E:T 12.5:1): 43%
% Cytotoxicity (E.G7 (OVA) cells; E:T 25:1): 55%
% Cytotoxicity (E.G7 (OVA) cells; E:T 50:1): 65%
